System: 485368-065-R3-J5-PDC spheroids with HUVEC/MSC, viability
Assay: Anticancer human tumor 485368-065-R3-J5-PDC patient-derived pancreatic carcinoma cell line growth inhibition [RAS]
Details: for IC50: curve of first compound; for viability, T/C: stronger effect = lower value
How it was run: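 Tumour cells grown as complex spheroids with HUVEC endothelial cells and mesenchymal stem cells, treated with RAS pathway inhibitor combinations. Each agent spans half-log steps from near clinical Cmax, or 10 microM where Cmax is unknown.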
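Note: spheroids exposed to agents for seven days before readout.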

With `C[C@@H](NC(=O)c1ncnc(N)c1Cl)c1ncc(C(=O)Nc2cc(C(F)(F)F)c(Cl)cn2)s1` + CCn1c(-c2cccnc2C(C)OC)c2c3cc(ccc31)N1CCOC(CC(NC(=O)C(C(C)C)N(C)C(=O)C3(F)CCN(C(=O)C#CC(C)(C)N(C)C)CC3)C(=O)N3CCCC(N3)C(=O)OCC(C)(C)C2)C1 the IC50 (second compound 0.000949 µM) was > 10000 nM, the IC50 (second compound 0.003 µM) was > 10000 nM and the IC50 (second compound 0.00949 µM) was > 10000 nM. The IC50 (second compound 0.03 µM) was > 10000 nM, the IC50 (second compound 0.0949 µM) was > 10000 nM and the IC50 (second compound 0.3 µM) was > 10000 nM. The viability, T/C (second compound 0.000949 µM, first compound 0.0316 µM) was 107%, the viability, T/C (second compound 0.000949 µM, first compound 0.1 µM) was 102% and the viability, T/C (second compound 0.000949 µM, first compound 0.316 µM) was 106%. It also gave a viability, T/C (second compound 0.000949 µM, first compound 1 µM) of 93.6%, a viability, T/C (second compound 0.000949 µM, first compound 3.16 µM) of 92.6% and a viability, T/C (second compound 0.000949 µM, first compound 10 µM) of 86.4%. For the same molecule, the viability, T/C (second compound 0.003 µM, first compound 0.0316 µM) was 102%, the viability, T/C (second compound 0.003 µM, first compound 0.1 µM) was 107% and the viability, T/C (second compound 0.003 µM, first compound 0.316 µM) was 102%. For the same molecule, the viability, T/C (second compound 0.003 µM, first compound 1 µM) was 94.6%, the viability, T/C (second compound 0.003 µM, first compound 3.16 µM) was 106% and the viability, T/C (second compound 0.003 µM, first compound 10 µM) was 80.3%. For the same molecule, the viability, T/C (second compound 0.00949 µM, first compound 0.0316 µM) was 102%, the viability, T/C (second compound 0.00949 µM, first compound 0.1 µM) was 110% and the viability, T/C (second compound 0.00949 µM, first compound 0.316 µM) was 103%. It also gave a viability, T/C (second compound 0.00949 µM, first compound 1 µM) of 105%, a viability, T/C (second compound 0.00949 µM, first compound 3.16 µM) of 96.5% and a viability, T/C (second compound 0.00949 µM, first compound 10 µM) of 89%. For the same molecule, the viability, T/C (second compound 0.03 µM, first compound 0.0316 µM) was 102%, the viability, T/C (second compound 0.03 µM, first compound 0.1 µM) was 120% and the viability, T/C (second compound 0.03 µM, first compound 0.316 µM) was 106%. The viability, T/C (second compound 0.03 µM, first compound 1 µM) was 105%, the viability, T/C (second compound 0.03 µM, first compound 3.16 µM) was 107% and the viability, T/C (second compound 0.03 µM, first compound 10 µM) was 94.6%. The viability, T/C (second compound 0.0949 µM, first compound 0.0316 µM) was 102%, the viability, T/C (second compound 0.0949 µM, first compound 0.1 µM) was 111% and the viability, T/C (second compound 0.0949 µM, first compound 0.316 µM) was 105%. It also gave a viability, T/C (second compound 0.0949 µM, first compound 1 µM) of 96.5%, a viability, T/C (second compound 0.0949 µM, first compound 3.16 µM) of 104% and a viability, T/C (second compound 0.0949 µM, first compound 10 µM) of 76.1%. It also gave a viability, T/C (second compound 0.3 µM, first compound 0.0316 µM) of 97.5%, a viability, T/C (second compound 0.3 µM, first compound 0.1 µM) of 118% and a viability, T/C (second compound 0.3 µM, first compound 0.316 µM) of 111%. It also gave a viability, T/C (second compound 0.3 µM, first compound 1 µM) of 108%, a viability, T/C (second compound 0.3 µM, first compound 3.16 µM) of 106% and a viability, T/C (second compound 0.3 µM, first compound 10 µM) of 79.2%.

With `CC1(C)CCC(Nc2ncc(C(F)(F)F)c(-c3c[nH]c4c(P(C)(C)=O)c(C#N)ccc34)n2)CN1` (stereo unspecified) + CCn1c(-c2cc(N3CCN(C)CC3)cnc2C(C)OC)c2c3cc(ccc31)-c1csc(n1)CC(NC(=O)C1CC1C)C(=O)N1CCCC(N1)C(=O)OCC(C)(C)C2 the IC50 (second compound 0.000949 µM) was < 0.949 nM, the IC50 (second compound 0.003 µM) was < 0.949 nM and the IC50 (second compound 0.00949 µM) was < 0.949 nM. The IC50 (second compound 0.03 µM) was < 0.949 nM, the IC50 (second compound 0.0949 µM) was < 0.949 nM and the IC50 (second compound 0.3 µM) was < 0.949 nM. It also gave a viability, T/C (second compound 0.000949 µM, first compound 0.000949 µM) of 48.5%, a viability, T/C (second compound 0.000949 µM, first compound 0.003 µM) of 36.9% and a viability, T/C (second compound 0.000949 µM, first compound 0.00949 µM) of 26.8%. The viability, T/C (second compound 0.000949 µM, first compound 0.03 µM) was 31%, the viability, T/C (second compound 0.000949 µM, first compound 0.0949 µM) was 31.2% and the viability, T/C (second compound 0.000949 µM, first compound 0.3 µM) was 30.4%. It also gave a viability, T/C (second compound 0.003 µM, first compound 0.000949 µM) of 24.4%, a viability, T/C (second compound 0.003 µM, first compound 0.003 µM) of 26.2% and a viability, T/C (second compound 0.003 µM, first compound 0.00949 µM) of 24.3%. The viability, T/C (second compound 0.003 µM, first compound 0.03 µM) was 23.6%, the viability, T/C (second compound 0.003 µM, first compound 0.0949 µM) was 26.9% and the viability, T/C (second compound 0.003 µM, first compound 0.3 µM) was 27.4%. For the same molecule, the viability, T/C (second compound 0.00949 µM, first compound 0.000949 µM) was 17.1%, the viability, T/C (second compound 0.00949 µM, first compound 0.003 µM) was 19% and the viability, T/C (second compound 0.00949 µM, first compound 0.00949 µM) was 19.6%. The viability, T/C (second compound 0.00949 µM, first compound 0.03 µM) was 19.9%, the viability, T/C (second compound 0.00949 µM, first compound 0.0949 µM) was 24.5% and the viability, T/C (second compound 0.00949 µM, first compound 0.3 µM) was 21.1%. The viability, T/C (second compound 0.03 µM, first compound 0.000949 µM) was 14%, the viability, T/C (second compound 0.03 µM, first compound 0.003 µM) was 18.8% and the viability, T/C (second compound 0.03 µM, first compound 0.00949 µM) was 17.4%. For the same molecule, the viability, T/C (second compound 0.03 µM, first compound 0.03 µM) was 18.6%, the viability, T/C (second compound 0.03 µM, first compound 0.0949 µM) was 22.4% and the viability, T/C (second compound 0.03 µM, first compound 0.3 µM) was 21.2%. It also gave a viability, T/C (second compound 0.0949 µM, first compound 0.000949 µM) of 13.2%, a viability, T/C (second compound 0.0949 µM, first compound 0.003 µM) of 15.9% and a viability, T/C (second compound 0.0949 µM, first compound 0.00949 µM) of 15.7%. The viability, T/C (second compound 0.0949 µM, first compound 0.03 µM) was 17%, the viability, T/C (second compound 0.0949 µM, first compound 0.0949 µM) was 20.2% and the viability, T/C (second compound 0.0949 µM, first compound 0.3 µM) was 23.2%. For the same molecule, the viability, T/C (second compound 0.3 µM, first compound 0.000949 µM) was 11.7%, the viability, T/C (second compound 0.3 µM, first compound 0.003 µM) was 15.8% and the viability, T/C (second compound 0.3 µM, first compound 0.00949 µM) was 15.4%. For the same molecule, the viability, T/C (second compound 0.3 µM, first compound 0.03 µM) was 21.9%, the viability, T/C (second compound 0.3 µM, first compound 0.0949 µM) was 19.4% and the viability, T/C (second compound 0.3 µM, first compound 0.3 µM) was 22.6%.

For `C=CC(=O)Nc1cc(Nc2nccc(-c3cn(C)c4ccccc34)n2)c(OC)cc1N(C)CCN(C)C` + C=CC(=O)N1CCN(c2nc(OCC3CCCN3C)nc3c(F)c(-c4nc(N)cc(C)c4C(F)(F)F)c(Cl)cc23)C(C)C1, the IC50 (second compound 0.00316 µM) was > 1000 nM, the IC50 (second compound 0.01 µM) was > 1000 nM and the IC50 (second compound 0.0316 µM) was > 1000 nM. The IC50 (second compound 0.1 µM) was > 1000 nM, the IC50 (second compound 0.316 µM) was > 1000 nM and the IC50 (second compound 1 µM) was > 1000 nM. The viability, T/C (second compound 0.00316 µM, first compound 0.00316 µM) was 103%, the viability, T/C (second compound 0.00316 µM, first compound 0.01 µM) was 89.9% and the viability, T/C (second compound 0.00316 µM, first compound 0.0316 µM) was 104%. The viability, T/C (second compound 0.00316 µM, first compound 0.1 µM) was 104%, the viability, T/C (second compound 0.00316 µM, first compound 0.316 µM) was 108% and the viability, T/C (second compound 0.00316 µM, first compound 1 µM) was 97.1%. It also gave a viability, T/C (second compound 0.01 µM, first compound 0.00316 µM) of 105%, a viability, T/C (second compound 0.01 µM, first compound 0.01 µM) of 96.9% and a viability, T/C (second compound 0.01 µM, first compound 0.0316 µM) of 94.8%. The viability, T/C (second compound 0.01 µM, first compound 0.1 µM) was 100%, the viability, T/C (second compound 0.01 µM, first compound 0.316 µM) was 115% and the viability, T/C (second compound 0.01 µM, first compound 1 µM) was 89.5%. It also gave a viability, T/C (second compound 0.0316 µM, first compound 0.00316 µM) of 100%, a viability, T/C (second compound 0.0316 µM, first compound 0.01 µM) of 98.9% and a viability, T/C (second compound 0.0316 µM, first compound 0.0316 µM) of 99.4%. For the same molecule, the viability, T/C (second compound 0.0316 µM, first compound 0.1 µM) was 109%, the viability, T/C (second compound 0.0316 µM, first compound 0.316 µM) was 108% and the viability, T/C (second compound 0.0316 µM, first compound 1 µM) was 94.1%. The viability, T/C (second compound 0.1 µM, first compound 0.00316 µM) was 99.8%, the viability, T/C (second compound 0.1 µM, first compound 0.01 µM) was 98.6% and the viability, T/C (second compound 0.1 µM, first compound 0.0316 µM) was 99.7%. It also gave a viability, T/C (second compound 0.1 µM, first compound 0.1 µM) of 103%, a viability, T/C (second compound 0.1 µM, first compound 0.316 µM) of 100% and a viability, T/C (second compound 0.1 µM, first compound 1 µM) of 85%. For the same molecule, the viability, T/C (second compound 0.316 µM, first compound 0.00316 µM) was 98%, the viability, T/C (second compound 0.316 µM, first compound 0.01 µM) was 93.1% and the viability, T/C (second compound 0.316 µM, first compound 0.0316 µM) was 111%. The viability, T/C (second compound 0.316 µM, first compound 0.1 µM) was 119%, the viability, T/C (second compound 0.316 µM, first compound 0.316 µM) was 117% and the viability, T/C (second compound 0.316 µM, first compound 1 µM) was 87.8%. It also gave a viability, T/C (second compound 1 µM, first compound 0.00316 µM) of 106%, a viability, T/C (second compound 1 µM, first compound 0.01 µM) of 96.8% and a viability, T/C (second compound 1 µM, first compound 0.0316 µM) of 110%. The viability, T/C (second compound 1 µM, first compound 0.1 µM) was 112%, the viability, T/C (second compound 1 µM, first compound 0.316 µM) was 106% and the viability, T/C (second compound 1 µM, first compound 1 µM) was 87.8%.

— PubChem BioAssay AID2060902 (Molecular Pharmacology Branch, DTP, NCI, 2025)
